Results as given in PMC3544079 (MedChemComm, 2011).

Assays:
Format in all cases: biochemical
E. coli DXP synthase = E. coli DXP synthase (Escherichia coli, UniProt P77488); assay: E. coli DXP synthase inhibition, spectrophotometric coupled assay; conditions: with respect to pyruvate
[1] = biological target: T1, S. cerevisiae transketolase (Saccharomyces cerevisiae, UniProt P23254); assay: Inhibition of S. cerevisiae transketolase
T1 sequence (P23254 1-680): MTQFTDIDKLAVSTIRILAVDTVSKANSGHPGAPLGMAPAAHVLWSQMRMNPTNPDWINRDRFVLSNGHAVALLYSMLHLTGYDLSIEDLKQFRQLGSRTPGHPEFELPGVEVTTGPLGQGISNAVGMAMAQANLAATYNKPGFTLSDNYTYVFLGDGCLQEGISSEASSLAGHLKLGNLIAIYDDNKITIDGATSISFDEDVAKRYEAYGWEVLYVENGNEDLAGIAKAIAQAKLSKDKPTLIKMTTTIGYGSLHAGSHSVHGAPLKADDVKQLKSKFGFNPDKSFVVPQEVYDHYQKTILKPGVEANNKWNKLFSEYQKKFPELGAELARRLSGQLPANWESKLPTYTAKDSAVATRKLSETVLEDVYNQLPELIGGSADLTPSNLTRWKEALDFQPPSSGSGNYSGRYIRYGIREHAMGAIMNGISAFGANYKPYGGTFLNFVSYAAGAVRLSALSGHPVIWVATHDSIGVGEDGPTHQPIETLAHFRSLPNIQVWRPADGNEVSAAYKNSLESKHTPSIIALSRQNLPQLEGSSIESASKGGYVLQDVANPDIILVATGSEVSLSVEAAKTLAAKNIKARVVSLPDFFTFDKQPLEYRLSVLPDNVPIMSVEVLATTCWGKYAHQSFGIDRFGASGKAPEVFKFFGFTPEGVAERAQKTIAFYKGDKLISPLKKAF

[2] = biological target: T2, Porcine pyruvate dehydrogenase E1 subunit (Sus scrofa, UniProt P29804); assay: Inhibition of porcine pyruvate dehydrogenase E1 subunit; conditions: pyruvate varied, 0-1.0 mM BAP
T2 sequence (P29804 30-390 limits assumed): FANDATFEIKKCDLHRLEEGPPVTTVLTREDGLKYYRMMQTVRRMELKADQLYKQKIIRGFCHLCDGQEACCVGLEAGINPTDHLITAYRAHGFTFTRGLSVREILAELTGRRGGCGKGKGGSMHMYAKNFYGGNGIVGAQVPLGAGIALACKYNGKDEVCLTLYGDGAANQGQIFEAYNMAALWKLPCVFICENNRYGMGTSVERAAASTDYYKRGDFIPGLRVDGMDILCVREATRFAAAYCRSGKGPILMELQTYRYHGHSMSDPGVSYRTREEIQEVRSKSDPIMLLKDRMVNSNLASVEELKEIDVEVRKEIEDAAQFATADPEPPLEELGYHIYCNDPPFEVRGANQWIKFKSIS

Sequence of E. coli DXP synthase (P77488 whole entry): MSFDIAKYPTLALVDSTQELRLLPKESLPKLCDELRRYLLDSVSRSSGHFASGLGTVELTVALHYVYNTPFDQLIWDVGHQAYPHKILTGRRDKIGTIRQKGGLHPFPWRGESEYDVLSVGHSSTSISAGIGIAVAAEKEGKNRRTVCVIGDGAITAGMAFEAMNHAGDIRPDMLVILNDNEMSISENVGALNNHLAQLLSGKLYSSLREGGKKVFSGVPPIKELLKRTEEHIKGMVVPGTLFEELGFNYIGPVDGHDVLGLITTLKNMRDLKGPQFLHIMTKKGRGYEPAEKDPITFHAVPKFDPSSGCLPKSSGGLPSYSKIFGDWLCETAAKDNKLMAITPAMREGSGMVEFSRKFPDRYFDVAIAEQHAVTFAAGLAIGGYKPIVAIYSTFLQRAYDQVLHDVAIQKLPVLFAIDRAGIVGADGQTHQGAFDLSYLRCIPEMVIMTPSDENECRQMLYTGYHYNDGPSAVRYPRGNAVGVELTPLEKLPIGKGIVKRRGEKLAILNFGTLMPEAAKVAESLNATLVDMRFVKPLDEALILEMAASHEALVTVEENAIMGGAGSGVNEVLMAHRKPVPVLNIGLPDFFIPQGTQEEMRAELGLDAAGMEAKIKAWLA

SMILES | mode of inhibition (E. coli DXP synthase) | Ki [1] | mode of inhibition (E. coli DXP synthase; listed as BAP) | mode of inhibition [2]
COP(=O)([O-])C(C)=O.[Li+] [Compound 1, Methylacetylphosphonate, reference compound] | competitive inhibitor against pyruvate | > 1000 µM |  | 
CCOP(=O)([O-])C(C)=O.[Li+] [Compound 2, Ethylacetylphosphonate] | competitive mode of inhibition | > 1000 µM |  | 
CCCCOP(=O)([O-])C(C)=O.[Li+] [Compound 3, butylacetylphosphonate] |  | > 1000 µM | competitive mode of inhibition | Competitive inhibition
CCC(=O)P(=O)(O)OC [Compound 4] |  | > 1000 µM |  | 
CCCC(=O)P(=O)(O)OC [Compound 5] |  | > 1000 µM |  | 
CCCCC(=O)P(=O)(O)OC [Compound 6] |  | > 1000 µM |  | 
